pEC50, pIC50, pKd: −log10 of the molar value. Where a SMILES comes first, the peptide text is derived from it. Bridges are numbered along the chain shown (N, C = ends). [ ]: non-standard residue; d: D form. The star is where a group is joined. hPhe(3,5-F2-4-CF3) = N[C@@H](CCc1cc(F)c(C(F)(F)F)c(F)c1)C(=O)O; hPhe(3-Cl-4-CF3) = N[C@@H](CCc1ccc(C(F)(F)F)c(Cl)c1)C(=O)O; hPhe(4-CF3) = N[C@@H](CCc1ccc(C(F)(F)F)cc1)C(=O)O; NEtPhe(4-Me) = CCN[C@@H](Cc1ccc(C)cc1)C(=O)O; NMePhe(4-Cl) = CN[C@@H](Cc1ccc(Cl)cc1)C(=O)O; Phe(3-Cl) = N[C@@H](Cc1cccc(Cl)c1)C(=O)O; NMeGly(cPent) = CN[C@H](C(=O)O)C1CCCC1; Phe(4-F) = N[C@@H](Cc1ccc(F)cc1)C(=O)O; 2Nal = N[C@@H](Cc1ccc2ccccc2c1)C(=O)O; NMeCha = CN[C@@H](CC1CCCCC1)C(=O)O; NMeF = CN[C@@H](Cc1ccccc1)C(=O)O; NMeD = CN[C@@H](CC(=O)O)C(=O)O; NMeL = CN[C@@H](CC(C)C)C(=O)O; NMeV = CN[C@H](C(=O)O)C(C)C; NMeA = CN[C@@H](C)C(=O)O; Nle = CCCC[C@H](N)C(=O)O; Pyrrolidide = C1CCN(*)C1; Ac5c = NC1(C(=O)O)CCCC1; Aze = O=C(O)[C@@H]1CCN1; β3hA = C[C@H](N)CC(=O)O; Sar = CNCC(=O)O
Key:
[1] = molecular target: SOS1-KRAS (Homo sapiens, UniProt P01116, G12D); test: Inhibition of KRAS G12D mutant/SOS1 (unknown origin) interaction by TR-FRET assay; format: protein-complex assay
[2] = Inhibition of Biotinylated Avi-tagged KRas G12D mutant/GST tagged Raf1-RBD domain (1 to 149 residues) (unknown origin) incubated for 1 hr by TR-FRET assay; parameters: species or system Homo sapiens
[3] = molecular target: T1, GTPase KRas (Homo sapiens, UniProt P01116); test: Binding affinity to GTP bound KRas (unknown origin) assessed as dissociation constant by fluorescence anisotropy assay
[4] = molecular target: T1, GTPase KRas; test: Binding affinity to GppNHp bound KRas (unknown origin) assessed as dissociation constant by fluorescence anisotropy assay
[5] = molecular target: GTPase KRas/RAF1 (Homo sapiens, UniProt P01116); test: Inhibition of KRAS/RAF interaction (unknown origin) by HTRF assay; format: protein assay
[6] = molecular target: T1, GTPase KRas; test: Inhibition of KRas (unknown origin)
[7] = molecular target: T2, GTPase KRas (Homo sapiens, UniProt P01116, G12D); test: Binding affinity to KRas G12D mutant (unknown origin) assessed as dissociation constant by SPR analysis
[8] = molecular target: T2, GTPase KRas; test: Inhibition of KRas G12D mutant (unknown origin) by TR-FRET assay
[9] = molecular target: T1, GTPase KRas; test: Binding affinity to KRas (unknown origin) assessed as dissociation constant
[10] = molecular target: T2, GTPase KRas; test: Inhibition of human KRas G12D mutant incubated for 0.5 hrs by absorbance based analysis

Chain of SOS1-KRAS (P01116 whole entry G12D, looked up, the tested form may be a part): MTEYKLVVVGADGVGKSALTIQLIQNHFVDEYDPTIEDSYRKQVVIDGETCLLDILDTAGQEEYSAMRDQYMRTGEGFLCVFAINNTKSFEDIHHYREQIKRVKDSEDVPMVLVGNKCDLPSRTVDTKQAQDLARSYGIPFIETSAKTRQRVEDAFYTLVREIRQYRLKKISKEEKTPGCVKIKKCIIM
T2 sequence (P01116 whole entry G12D): as the sequence (P01116 whole entry G12D, looked up, the tested form may be a part) above
T1 sequence (P01116 whole entry): as the sequence (P01116 whole entry G12D, looked up, the tested form may be a part) above, with D12G counted along it
Chain of GTPase KRas/RAF1 (P04049 whole entry): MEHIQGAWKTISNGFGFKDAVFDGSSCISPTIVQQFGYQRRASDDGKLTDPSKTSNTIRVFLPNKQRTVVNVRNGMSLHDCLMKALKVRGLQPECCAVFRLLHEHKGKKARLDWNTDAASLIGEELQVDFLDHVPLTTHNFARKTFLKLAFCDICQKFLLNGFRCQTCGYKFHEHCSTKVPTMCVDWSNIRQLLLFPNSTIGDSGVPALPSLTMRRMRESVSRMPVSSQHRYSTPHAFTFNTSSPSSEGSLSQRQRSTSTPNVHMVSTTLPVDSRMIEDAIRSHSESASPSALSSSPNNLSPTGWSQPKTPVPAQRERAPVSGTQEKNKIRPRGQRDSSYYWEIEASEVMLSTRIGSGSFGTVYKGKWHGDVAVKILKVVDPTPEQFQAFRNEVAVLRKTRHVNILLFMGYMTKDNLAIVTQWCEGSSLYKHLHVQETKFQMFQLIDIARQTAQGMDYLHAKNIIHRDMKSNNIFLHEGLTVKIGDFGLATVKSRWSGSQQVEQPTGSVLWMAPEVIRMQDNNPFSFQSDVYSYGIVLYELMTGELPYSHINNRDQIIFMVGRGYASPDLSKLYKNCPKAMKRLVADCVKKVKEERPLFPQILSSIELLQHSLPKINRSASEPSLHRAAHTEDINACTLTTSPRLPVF
Chain of GTPase KRas/RAF1 (P01116 whole entry): as the sequence (P01116 whole entry G12D, looked up, the tested form may be a part) above, with D12G counted along it

CC[C@H](C)[C@@H]1NC(=O)[C@H](CC(C)C)N(C)C(=O)C[C@@H](C(=O)N(C)C)N(C)C(=O)[C@H](C2CCCC2)N(C)C(=O)C2(CCCC2)NC(=O)[C@@H]2CCCN2C(=O)[C@H](CCc2cc(F)c(C(F)(F)F)c(F)c2)NC(=O)CN(C)C(=O)[C@H](Cc2ccc(C)cc2)N(CC)C(=O)[C@@H]2CCN2C(=O)[C@H](C)N(C)C1=O ([NMeL]I[NMeA][Aze][NEtPhe(4-Me)][Sar][hPhe(3,5-F2-4-CF3)]P[Ac5c][NMeGly(cPent)][NMeD]-NMe2; lactam N-11)
pIC50 [1]: > 8.70

CC[C@H](C)[C@@H]1NC(=O)[C@H](Cc2ccccc2)NC(=O)[C@H](CCCCN)NC(=O)[C@H](CCC(=O)O)NC(=O)[C@H]([C@@H](C)O)NC(=O)[C@H](C(C)C)NC(=O)[C@H]([C@@H](C)CC)NC(=O)[C@H]([C@@H](C)CC)NC(=O)[C@H](Cc2ccc(O)cc2)NC(=O)CSC[C@@H](C(=O)NCC(N)=O)NC(=O)[C@H](Cc2c[nH]cn2)NC(=O)[C@H](Cc2c[nH]cn2)NC(=O)[C@H](C(C)C)NC(=O)[C@H](Cc2c[nH]c3ccccc23)NC1=O
pIC50 [2]: 5.52

CC(C)[C@H]1NC(=O)[C@H](CCCNC(=N)N)NC(=O)[C@@H](Cc2ccccc2)NC(=O)[C@@H]2CCCCNC(=O)c3cc(cc(c3)C(=O)N[C@H](Cc3ccc4ccccc4c3)C(=O)N[C@@H](CO)C(=O)N[C@@H](CCC(N)=O)C(=O)N[C@H](Cc3ccc4ccccc4c3)C(=O)N[C@@H](c3ccccc3)C(=O)N2)C(=O)NC[C@@H](C(N)=O)NC(=O)[C@H](CCCNC(=N)N)NCC1=O
pKd [3]: 5.92
pKd [4]: 5.80

CC(C)C[C@@H]1NC(=O)[C@H](CCC(=O)O)NC(=O)[C@H](CC(C)C)NC(=O)[C@@H]2CCCN2C(=O)[C@H](CCCNC(=N)N)NC(=O)[C@H](Cc2ccc(O)cc2)NC(=O)[C@@H]2CCCN2C(=O)[C@H](Cc2ccc(O)cc2)NC(=O)[C@H](CC(N)=O)NC(=O)[C@@H](Cc2ccc(O)cc2)NC(=O)CSC[C@@H](C(=O)NCC(N)=O)NC(=O)[C@H](Cc2ccc(O)cc2)NC(=O)[C@H](Cc2c[nH]c3ccccc23)NC1=O
pIC50 [2]: 4.82

CCCC[C@@H]1NC(=O)[C@H](Cc2ccc(F)cc2)NC(=O)[C@H](CCCNC(=N)N)NC(=O)[C@H](Cc2ccc3ccccc3c2)NC(=O)[C@H](CCCNC(=N)N)NC(=O)[C@H](CCCNC(=N)N)NC(=O)[C@H](CCCNC(=N)N)NC(=O)[C@H](C)NC(=O)[C@H]([C@@H](C)O)NC(=O)[C@H](Cc2c[nH]c3ccccc23)NC(=O)[C@H](CCC(N)=O)NC1=O (cyclo([2Nal]R[Phe(4-F)][Nle]QWTARRR))
pIC50 [5]: 6.92

CC(C)C[C@H](NC(=O)C1CCCOCc2cnnn2CCC(=O)NCC(=O)N2CCC[C@H]2C(=O)N[C@@H](Cc2cccc3ccccc23)C(=O)N1)C(N)=O (some centres not stated)
pIC50 [6]: 5.15

CC[C@H](C)[C@@H]1NC(=O)[C@@H]2CCCN2C(=O)CNC(=O)CCn2nncc2COCCCC(C(=O)N[C@@H](CC(C)C)C(N)=O)NC1=O (some centres not stated)
pIC50 [6]: 4.00

CC[C@H](C)[C@@H]1NC(=O)[C@H](Cc2ccc(O)cc2)NC(=O)[C@H](CC(C)C)NC(=O)[C@@H]2CCCN2C(=O)[C@@H](NC(=O)[C@H](CCCNC(=N)N)NC(=O)[C@H](CCCNC(=N)N)NC(C)=O)CSSC[C@@H](C(=O)N[C@@H](CCCNC(=N)N)C(=O)N[C@@H](CCCNC(=N)N)C(N)=O)NC(=O)[C@H](C(C)C)NC(=O)[C@@H]2CCCN2C(=O)[C@H](CC(=O)O)NC(=O)[C@H](Cc2ccc(O)cc2)NC(=O)[C@H](CO)NC1=O (Ac-RRCPLYISYDPVCRR-NH2; disulfide 3-13)
pKd [7]: 7.29
pIC50 [8]: 8.05

CC[C@H](C)[C@@H]1NC(=O)[C@H](C)N(C)C(=O)C[C@@H](C(=O)N2CCCC2)NC(=O)[C@H](C(C)C)N(C)C(=O)[C@H](Cc2ccccc2)N(C)C(=O)[C@H](Cc2c[nH]c3ccccc23)NC(=O)[C@H](Cc2cccc(Cl)c2)NC(=O)CN(C)C(=O)[C@H](Cc2ccc(Cl)cc2)N(C)C(=O)CN(C)C(=O)CN(C)C1=O ([NMeA]I[Sar][Sar][NMePhe(4-Cl)][Sar][Phe(3-Cl)]W[NMeF][NMeV]D-Pyrrolidide; lactam N-11)
pIC50 [1]: 7.27

C[C@@H](NC(=O)[C@H](Cc1ccccc1)NC(=O)[C@@H](CCCNC(=N)N)NC(=O)[C@H](CCCN)NC(=O)[C@@H]1CNC(=O)c2cc3cc(c2)C(=O)N[C@H](Cc2ccc4ccccc4c2)C(=O)N[C@@H](CO)C(=O)N[C@@H](CC(N)=O)C(=O)N[C@H](Cc2ccc4ccccc4c2)C(=O)N[C@@H](c2ccccc2)C(=O)N[C@@H](CCCCNC3=O)C(=O)N[C@H](Cc2ccccc2)C(=O)N[C@@H](CCC(N)=O)C(=O)N[C@H](CCCNC(=N)N)C(=O)CN[C@@H](CCCNC(=N)N)C(=O)N1)C(N)=O
pIC50 [1]: 6.92

CC[C@H](C)[C@@H]1NC(=O)[C@H](C)N(C)C(=O)C[C@@H](C(=O)N2CCCC2)NC(=O)[C@H](CC(C)C)N(C)C(=O)[C@H](Cc2ccccc2)N(C)C(=O)[C@H](CC(C)C)NC(=O)[C@H](CCc2ccc(C(F)(F)F)cc2)NC(=O)CN(C)C(=O)[C@H](Cc2ccc(Cl)cc2)N(C)C(=O)CN(C)C1=O ([NMeA]I[Sar][NMePhe(4-Cl)][Sar][hPhe(4-CF3)]L[NMeF][NMeL]D-Pyrrolidide; lactam N-10)
pIC50 [1]: 7.74

Cc1[nH]c2cc(Cl)cc(Cl)c2c1CCN
pKd [9]: ~2.96

CCCCCCC[C@@H]1NC(=O)[C@H](CO)NC(=O)[C@H](Cc2ccc(F)cc2)NC(=O)[C@H](CC(=O)O)NC(=O)[C@@H]2CCCN2C(=O)[C@H](Cc2c[nH]c3ccccc23)NC(=O)[C@H]2CSCCCSC[C@H](NC1=O)C(=O)N[C@@H](CCCC)C(=O)NCCC(=O)N2
pEC50 [10]: 7.66

CC[C@H](C)[C@@H]1NC(=O)[C@H](CC(C)C)N(C)C(=O)C[C@H](C)NC(=O)[C@H](CC(C)C)N(C)C(=O)C2(CCCC2)NC(=O)[C@@H]2CCCN2C(=O)[C@H](CCc2ccc(C(F)(F)F)cc2)NC(=O)CN(C)C(=O)[C@H](CC2CCCCC2)N(C)C(=O)CN(C)C(=O)CN(C)C1=O (cyclo([Ac5c][NMeL][β3hA][NMeL]I[Sar][Sar][NMeCha][Sar][hPhe(4-CF3)]P))
pIC50 [1]: 6.96

CC[C@H](C)[C@@H]1NC(=O)[C@H](CC(C)C)N(C)C(=O)C[C@H](C)NC(=O)[C@H](C(C)C)N(C)C(=O)C2(CCCC2)NC(=O)[C@@H]2CCCN2C(=O)[C@H](CCc2ccc(C(F)(F)F)c(Cl)c2)NC(=O)CN(C)C(=O)[C@H](CC2CCCCC2)N(C)C(=O)CN(C)C1=O (cyclo([Ac5c][NMeV][β3hA][NMeL]I[Sar][NMeCha][Sar][hPhe(3-Cl-4-CF3)]P))
pIC50 [1]: 7.96

CCCC[C@@H]1NC(=O)[C@H](Cc2ccc(F)cc2)NC(=O)[C@H](CCCNC(=N)N)NC(=O)[C@H](Cc2ccc3ccccc3c2)NC(=O)[C@H](CCCNC(=N)N)NC(=O)[C@H](CCCNC(=N)N)NC(=O)[C@H](CCC(N)=O)NC(=O)[C@H](C)NC(=O)[C@H]([C@@H](C)O)NC(=O)[C@H](Cc2c[nH]c3ccccc23)NC(=O)[C@H](CO)NC1=O (cyclo([2Nal]R[Phe(4-F)][Nle]SWTAQRR))
pIC50 [5]: 6.19

CC(C)C[C@H](NC(=O)C1CCCOCc2cnnn2CCC(=O)NCC(=O)N2CCCC[C@H]2C(=O)N[C@@H](Cc2cccc3ccccc23)C(=O)N1)C(N)=O (some centres not stated)
pIC50 [6]: 5.11

CC[C@H](C)[C@@H]1NC(=O)[C@H](CC(C)C)N(C)C(=O)C[C@H](C)NC(=O)[C@H](C(C)C)N(C)C(=O)C2(CCCC2)NC(=O)[C@@H]2CCCN2C(=O)[C@H](CCc2ccc(C(F)(F)F)c(Cl)c2)NC(=O)CN(C)C(=O)[C@H](CC2CCCCC2)N(C)C(=O)[C@@H]2CCN2C(=O)[C@H](C)N(C)C1=O (cyclo([Ac5c][NMeV][β3hA][NMeL]I[NMeA][Aze][NMeCha][Sar][hPhe(3-Cl-4-CF3)]P))
pIC50 [1]: 7.62

CC[C@H](C)[C@H](NC(=O)CNC(=O)[C@H](Cc1ccccc1)NC(=O)[C@H](Cc1ccccc1)NC(=O)[C@H](CCCNC(=N)N)NC(=O)[C@H](CCCNC(=N)N)NC(C)=O)C(=O)N[C@@]1(C)CCC/C=C\CCC[C@@](C)(C(=O)N[C@@H](CC(C)C)C(=O)N[C@@H](CCCCN)C(=O)N[C@H](C(=O)N[C@@H](CCC(=O)O)C(=O)N[C@@H](CCC(=O)O)C(=O)NCC(=O)N[C@@H](CC(N)=O)C(N)=O)[C@@H](C)O)NC(=O)[C@@H](CC(N)=O)NC(=O)[C@H]([C@@H](C)O)NC(=O)[C@@H](CC(C)C)NC1=O
pIC50 [1]: 7.44

CC[C@H](C)[C@@H]1NC(=O)[C@@H]2CCCN2C(=O)[C@H](Cc2ccc(O)cc2)NC(=O)[C@@H](NC(=O)[C@H](CC(=O)O)NC(=O)[C@H](Cc2ccc(O)cc2)NC(=O)[C@H](Cc2ccccc2)NC(=O)[C@H](Cc2c[nH]cn2)NC(=O)[C@@H](N)Cc2ccccc2)CC#CC[C@@H](C(=O)N[C@@H](CC(C)C)C(=O)N[C@H](C(=O)N2CCC[C@H]2C(=O)N2CCC[C@H]2C(N)=O)[C@@H](C)CC)NC1=O
pIC50 [6]: 7.64
